# Data: patent publication US10596169B2, “Cancer treatment with combination of plinabulin and taxane” (BeyondSpring Inc., priority 2013, dated 2020)
# Marks after values point to notes of the source that are not given here.
# System: MV522 human non-small cell lung tumor xenograph model
# Assay: Example 1: MV522 xenograft, NPI-2358 single agent and with docetaxel (TGI/TGD)
# Type: in vivo, athymic nu/nu mice
# Conditions: for MDS day ± SD: endpoint 1.5 cm^3
# Procedure: In vivo evaluation of plinabulin (NPI-2358) as a single agent and in combination with docetaxel in the MV522 human non-small cell lung tumor xenograph model in athymic nu/nu mice
# The objective of the example was to determine potential additive or synergistic effects of plinabulin in combination with docetaxel in the MV522 model by exploring the scheduling of the drug combination explored by administering one of the agents 2 hours after the first drug was given. Significant endpoints for this experiment included mean tumor growth inhibition (TGI) or regression, tumor growth delay (TGD) in large tumor, weight loss, and mortality.
# Female nude mice (Hsd: Athymic Nude-Foxn1^nu) between 5 and 6 weeks of age weighing approximately 20 grams were obtained from Harlan, Inc. (Madison, Wis.). MV522 is a conventional human NSC metastatic lung tumor cell line (U.S. Pat. No. 7,700,615 or 7,629,380). Animals were injected subcutaneously (SC) with approximately 1×10^7 MV522 cells harvested from tissue culture. When tumors grew to approximately 105 cubic millimeters (mm^3) in size (3 days following implantation), animals were pair-matched by tumor size into treatment and control groups; each treatment group contained eight mice. Animals were ear-tagged and followed individually throughout the experiment.
# Initial doses were administered on Day 1 following pair-matching. The experiment was carried out as a tumor growth inhibition (TGI) and tumor growth delay (TGD) study. Group 1 endpoint was when tumor volume reached 1.2 cm^3 (TGI) and the treated groups endpoint was when each individual animal's tumor volume reached 1.5 cm^3 (TGD). […] To serve as negative controls, NPI-2358 vehicle and docetaxel vehicle were injected IP on a 2×WKLY×3 schedule and IV on a Q2D×3 schedule, respectively. Docetaxel was administered by intravenous (IV) injection via tail vein at 15 mg/kg once every other day for three treatments (Q2D×3) or at 25 mg/kg on a Q7D×3 schedule (every 7 day for three treatment). Docetaxel and docetaxel vehicle were administered two hours prior to NPI-2358 vehicle and NPI-2358, respectively, in Groups 7-9 and 12-14. For Groups 10, 11, 15, and 16, NPI-2358 was given two hours prior to docetaxel.
# Mice were weighed and caliper tumor measurements taken. Tumor growth inhibition (TGI) values were calculated for each group containing treated animals using the formula below: […]
# Animals experiencing complete tumor responses or animals experiencing technical or drug-related deaths were censored from final TGI calculations; however animals experiencing partial tumor responses were included in the final TGI calculations. […] TGI values for each treatment group are reported at study completion; these calculations are based on the final study day.
# This arm of the study was ended on Day 74 at the sponsor's request. […] Upon TGD study completion, a Median Day of Sacrifice (MDS) was calculated for the control (C) and each treatment (T) group and used to determine tumor growth delay (T-C) using the following equations: MDS=Median [ΣIDS] T−C=MDSTreated−MDSControl
# Where IDS (Individual Day of Sacrifice) is the day when each animal reached its tumor volume endpoint (1.5 cm^3); only animals reaching this endpoint were included in TGD calculations. Gross or net log10 cell kill for each treatment group was determined using the following equations: […]
# [1] = G7: docetaxel 15 mg/kg IV Q2Dx3 + NPI-2358 vehicle
# [2] = G12: docetaxel 25 mg/kg IV Q7Dx3 + NPI-2358 vehicle
smiles,measurement,setting,value
"CC(=O)O[C@@]12CO[C@@H]1C[C@H](O)[C@@]1(C)C(=O)[C@H](O)C3=C(C)[C@@H](OC(=O)[C@H](O)[C@@H](NC(=O)OC(C)(C)C)c4ccccc4)C[C@@](O)([C@@H](OC(=O)c4ccccc4)[C@H]21)C3(C)C [Docetaxel, docetaxel]",#CR (Day 25),[1],0/0
same,#CR (TGD study),[1],0/0
same,#LTS (long-term survivors),[1],0
same,#PR (Day 25),[1],0/0
same,#PR (TGD study),[1],0/0
same,% TGI,[1],88%
same,Final tumor volume (Day 25) mean ± SEM,[1],259 ± 45 mm^3
same,Log10 cell kill,[1],0.4
same,T-C (tumor growth delay),[1],16
same,MDS day ± SD,[1],45 ± 9 days
same,#CR (Day 25),[2],0
same,#CR (TGD study),[2],0/0
same,#LTS (long-term survivors),[2],2
same,#PR (Day 25),[2],8
same,#PR (TGD study),[2],0/0
same,% TR (Day 25),[2],58%
same,Activity rating,[2],+ (1.0-1.9)
same,Final tumor volume (Day 25) mean ± SEM,[2],43 ± 4 mm^3
same,Log10 cell kill,[2],1.0
same,T-C (tumor growth delay),[2],39
same,MDS day ± SD,[2],68 ± 6 days
same,% TGI,"G12: docetaxel 25 mg/kg IV Q7Dx3 + NPI-2358 vehicle, value includes tumors with PR",107^† %
same,Tumor volume / tumor burden compared to vehicle control,"single agent, Example 1",strong decrease in tumor burden
